Test results as given in paper PMC6928761, “Trypanocidal Mechanism of Action and in silico Studies of p-Coumaric Acid Derivatives” (International Journal of Molecular Sciences, 2019).
Like-named read-outs stand apart in the source and are kept apart here.

Tests used:
LLC-MK2 cells = assay: Cytotoxicity evaluation (mammalian cells), MTT assay; format: cell-based; details: Macaca mulatta, read-out: LLC-MK2 IC50
Method: (§1) The trypanocidal activity of the p-coumaric derivatives (1–12) were evaluated against epimastigotes and trypomastigote forms of T. cruzi (strain Y) at 24 h of incubation and in host LLC-MK2 cells at 24 h of exposure to different concentrations: 100; 50; 25; 12.5; 6.25; 3.12; and 1.56 μg/mL. In the MTT assay it was possible to calculate the IC50 of the tested substances through cell viability, which was calculated in relation to the negative control, whose absorbance was considered 100%.
For cell viability we used a standard MTT assay. LLC-MK2 cells were inoculated in DMEM medium, treated with different concentrations of p-coumaric derivatives and incubated at 37 °C for 24 h. MTT (Amresco, Solon, Ohio, USA; 5 mg/mL) was inserted and the cells were incubated for 4 h.
In the next procedure, formazan was solubilized in 10% sodium dodecyl sulfate (SDS; Vetec, São Paulo, Brazil). For cell viability analysis, a plate reader (Biochrom® Asys Expert Plus, CAMBRIGE, UK) with a wavelength of 570 nm was used. While in relative cell viability cells were calculated, which were treated with sterile PBS in triplicate for negative controls and experiments.

[1] = system: T. cruzi (strain Y) epimastigotes; assay: Effect on T. cruzi epimastigote forms (24 h, Neubauer chamber count); format: cell-based, Trypanosoma cruzi; details: for trypanocidal activity (in words): epimastigote forms
Method: as §1
Preparation of T. cruzi epimastigote was performed by cultivation in 96-well Y-staining plates at a density of 10^6 cells/mL, and using liver tryptose infusion with 10% fetal bovine serum (SFB) supplementation, and 1% antibiotic. They were then treated with p-coumaric derivatives. The grown parasites presenting inhibition were collected and quantified in a Neubauer chamber after incubation at 28 °C for 24 h. To determine relative viability, parasites treated only with sterile PBS medium were used as negative controls (viability of 100%), and experiments were performed in triplicate.

[2] = system: T. cruzi (strain Y) trypomastigotes; assay: Effect on T. cruzi trypomastigote forms (24 h); format: cell-based; details: Trypanosoma cruzi, read-out: Y strain (Tripomastigotes) IC50
Method: as §1
Acquisition of T. cruzi trypomastigotes was by infection of LLCMK2 cells using trypomastigotes in T-25/75cm^2 containers at 37 °C with 5% CO2 atmosphere in DMEM (Vitrocell, São Paulo, Brazil) and supplementation of 1% antibiotics and 2% SFB for 24 h. Then the trypomastigotes were plated and treated with p-coumaric acid derivatives. Cell viability was counted after 24 h of incubation at 37 °C. LC50 was obtained. While relative cell viability was calculated using sterile PBS-treated cells for both negative controls and experiments, all in triplicate.

[3] = system: T. cruzi epimastigote forms; assay: Mitochondrial transmembrane potential, rhodamine 123 flow cytometry; format: cell-based, Trypanosoma cruzi; details: 5.164 and 10.329 μM, 24 h
Method: Mitochondrial transmembrane potential (ΔΨm) was assessed using rhodamine 123 fluorescent dye (Rho123).
Rhodamine 123 (Rho123) is a lipophilic and cationic dye that under normal conditions accumulates in the mitochondrial inter-membrane space. Presenting affinity with hydrogen ions, there is a reduction in the concentration of H^+ ions in the inter-membrane space, which decreases Rho123 accumulation, as illustrated in Figure 5. Changes in ΔΨm can be measured using Rho123, measuring the decrease in green fluorescence.
The compound 7 (5.164 and 10.329 μM) was added to the epimastigotes (10^6 cells) in 24-well plates. At 24 h of incubation, cells were transferred to tubes, centrifuged and washed with PBS. The cells were then re-suspended in 100 µL PBS, and 5 µL of Rho123 solution (200 µg/mL in absolute ethanol) was added to obtain a final concentration of 10 µg/mL. Samples were incubated in the dark for 30 min, washed twice with PBS, and re-suspended in PBS (500 µL/tube). Finally, the samples were analyzed using flow cytometry. Results were evaluated using relative fluorescent intensity, calculated as described in the previous item.

[4] = system: T. cruzi epimastigote forms; assay: Cytoplasmic reactive oxygen species, DCFH-DA flow cytometry; format: cell-based, Trypanosoma cruzi; details: both treated groups (5.164 and 10.329 μM) vs control, 24 h
Method: The increased presence of reactive oxygen species (ROS) in the cytoplasm of compound 7 treated epimastigote cells was analyzed using the 2′,7′-dichlorofluorescein diacetate reagent (DCFH-DA). As a lipophilic molecule, when internalized in cells it is cleaved by cytoplasmic esterase into DCFH (reduced 2′-7′-dichlorofluorescein), and as it is unable to cross membranes DCFH reacts with intra-cytoplasmic ROSs producing DCF (oxidized 2′-7′-dichlorofluorescein). DCF emits green fluorescence, and the fluorescent intensity emitted by the cell is directly proportional to the intra-cytoplasmic ROS concentration.
A concentration of 10^6 epimastigotes/mL were placed in 24-well plates in the presence of BIS (5.164 and 10.329 μM). […] After 24 h of incubation with compound 7, the cells were harvested, centrifuged (2800 RPM for 7 min), washed with PBS twice, and re-suspended in 500 µL PBS. At the end, the cells were analyzed by flow cytometer.
In accordance with Kessler et al. (2013), the level of labeling in each group was assessed by the mean geometric fluorescence intensity. The results obtained were expressed as relative fluorescence intensity using the formula:(1) Relative fluorescence=mTEST/mCONTROL where: • mTEST = geometric mean of the group to be analyzed; • mCONTROL = geometric mean of the control group.

[5] = system: T. cruzi epimastigote forms; assay: Cell death profile, 7-AAD / annexin V-PE flow cytometry; format: cell-based, Trypanosoma cruzi; details: 5.164 and 10.329 μM, 24 h
Method: Epimastigote forms were used to assess the cell death profile using labeling with AxPE and 7-AAD. For data interpretation, the cells were divided into four cell populations: viable cells, with low levels of labeling for both fluorochromes (un-labeled); necrotic cells, labeled only with 7-AAD (7AAD +); apoptotic cells, labeled with annexin V-PE only (/ AxPE +); and doubly labeled late apoptotic cells (7AAD +/AxPE +).
Evaluation of the mechanism by which compound 7 induced cell death was performed using flow cytometry with 7-AAD (7-aminoactinomicyn D) and phycoerythrin-labeled Annexin V (AxPE) as fluorescent markers. 7-AAD is a molecule capable of specifically interleaving into DNA. However, it is not able to penetrate cells with intact membranes. Cells with high 7-AAD labeling are thus considered necrotic due to loss of membrane integrity. Annexin V is a 36 KDa protein that in the presence of calcium ions presents high affinity for phosphatidylserine. Thus, Ax/PE is used to evaluate external phosphatidylserine as a marker of apoptosis.
T. cruzi epimastigote forms were cultured at a density of 10^6 cells/mL in the presence of compound 7 (at concentrations of 5.164 and 10.329 μM) for 24 h in a BOD greenhouse. The cells were then transferred to cytometry tubes, centrifuged at 4000 RPM for 5 min, and washed with PBS once, and then washed twice with binding buffer (pH 7.4; 10 mM HEPES solution; 140 mM NaCl and 2.5 CaCl2 mM). After final centrifugation, the pellet was re-suspended in 100 µl binding buffer, 5 µl 7-AAD (0.5 mg/mL), and 5 µl Ax/PE. […] After 15 min of incubation in the dark, 400 µl of binding buffer was added to each tube and cells were analyzed on FACSCalibur (BD Biosciences, San José, Califórnia, EUA).
For each tube, a minimum of 10^4 cells were analyzed for quantitation of the percentage of unlabeled, and individually or double labeled 7-AAD and Ax/PE cells. […] Ax/PE labeled cells were read by an FL2 detector (563 at 606 nm, yellow fluorescence), while 7-AAD labeled cells were read at 615 to 645 nm wavelength (red fluorescence, FL3 detector).

T. cruzi amastigotes = system: T. cruzi amastigotes; parameters: method as in Lima et al. (2015) [41]; details: ref Lima et al. (2015) [41]; read-out: activity against T. cruzi amastigotes; cited from earlier work
Trypanosoma brucei = system: Trypanosoma brucei; parameters: method as in Steverding et al. (2016) [47]; details: ref Steverding et al. (2016) [47]; cited from earlier work
[6] = Trypanosoma cruzi, 24 h, read-out: Y strain (Epimastigotes) IC50, 24 h incubation

Structure (SMILES): COC(=O)/C=C/c1ccc(O)cc1 [compound 1, (E)-Methyl 3-(4-hydroxyphenyl)acrylate]
- IC50 (LLC-MK2 cells; LLC-MK2, 24 h exposure, MTT): > 561 µM
- IC50 ([1]; Trypanosoma cruzi, 24 h incubation, read-out: Y strain (Epimastigotes) IC50): 601 ± 249 µM

Structure (SMILES): CCOC(=O)/C=C/c1ccc(O)cc1 [compound 2]
- IC50 (LLC-MK2 cells; LLC-MK2, 24 h): 443 ± 109 µM
- IC50 [1, 6]: 216 ± 109 µM

Structure (SMILES): CCCOC(=O)/C=C/c1ccc(O)cc1 [compound 3, Propyl p-coumarate]
- IC50 (LLC-MK2 cells; LLC-MK2, 24 h): 446 ± 187 µM
- IC50 [1, 6]: 16.8 ± 1.93 µM
- trypanocidal activity (in words) [1]: good trypanocidal activity
- IC50 [2]: 117 ± 59.1 µM

Structure (SMILES): CC(C)OC(=O)/C=C/c1ccc(O)cc1 [compound 4]
- IC50 (LLC-MK2 cells; LLC-MK2, 24 h): 290 ± 49 µM
- IC50 [1, 6]: 335 ± 54.3 µM

Structure (SMILES): COCCOC(=O)/C=C/c1ccc(O)cc1 [compound 5, 2-methoxyethyl p-coumarate]
- IC50 (LLC-MK2 cells; LLC-MK2, 24 h): > 450 µM
- IC50 [1, 6]: 32 ± 5.39 µM
- trypanocidal activity (in words) [1]: good trypanocidal activity
- IC50 [2]: 360 ± 112 µM

Structure (SMILES): CCCCOC(=O)/C=C/c1ccc(O)cc1 [compound 6]
- IC50 (LLC-MK2 cells; LLC-MK2, 24 h): 274 ± 46.8 µM
- IC50 [1, 6]: 155 ± 33.1 µM

Structure (SMILES): CCCCCOC(=O)/C=C/c1ccc(O)cc1 [compound 7, pentyl p-coumarate]
- rhodamine 123 accumulation (mitochondrial transmembrane potential) [3]: reduction
- IC50 (LLC-MK2 cells; LLC-MK2, 24 h): 123 ± 22.6 µM
- IC50 [1, 6]: 5.16 ± 1.28 µM
- trypanocidal activity (in words) [1]: good trypanocidal activity
- relative fluorescence (DCF, reactive oxygen species) [4]: increase
- cell death profile [5]: cell death by necrosis
- percentage of 7-AAD-labeled cells [5]: increase
- percentage of viable cells [5]: reduction
- IC50 [2]: 61.6 ± 28.6 µM

Structure (SMILES): CC(C)CCOC(=O)/C=C/c1ccc(O)cc1 [compound 8, isopentyl p-coumarate]
- IC50 (LLC-MK2 cells; LLC-MK2, 24 h): 120 ± 19.2 µM
- IC50 [1, 6]: 13.2 ± 2.56 µM
- trypanocidal activity (in words) [1]: good trypanocidal activity
- IC50 [2]: 111 ± 38.7 µM

Structure (SMILES): CCCCCCOC(=O)/C=C/c1ccc(O)cc1 [compound 9]
- IC50 (LLC-MK2 cells; LLC-MK2, 24 h): 131 ± 16.9 µM
- IC50 [1, 6]: 68.9 ± 18.1 µM

Structure (SMILES): CCCCCCCCCCCCOC(=O)/C=C/c1ccc(O)cc1 [compound 10]
- IC50 (LLC-MK2 cells; LLC-MK2, 24 h): 141 ± 15.2 µM
- IC50 [1, 6]: 50.6 ± 18.9 µM

Structure (SMILES): Cc1ccc(COC(=O)/C=C/c2ccc(O)cc2)cc1 [compound 11]
- IC50 (LLC-MK2 cells; LLC-MK2, 24 h): 160 ± 97.6 µM
- IC50 [1, 6]: 75.5 ± 13.4 µM
- trypanocidal activity (in words) [1]: did not show significant trypanocidal activity

Structure (SMILES): CC(C)c1ccc(COC(=O)/C=C/c2ccc(O)cc2)cc1 [compound 12]
- IC50 (LLC-MK2 cells; LLC-MK2, 24 h): 2.74 µM
- IC50 [1, 6]: 68.9 ± 18.1 µM
- trypanocidal activity (in words) [1]: did not show significant trypanocidal activity
- IC50 ([1]; read-out: Y strain (Epimastigotes) IC50, 24 h incubation): 40.1 ± 10.1 µM

Structure (SMILES): CCOC(=O)/C=C/c1ccc(O)c(O)c1 [ethyl caffeate]
- IC50 (T. cruzi amastigotes): 18.3 µM

Structure (SMILES): CC(C)CCOC(=O)/C=C/c1ccc(O)c(O)c1 [isopentyl caffeate]
- effect on parasite growth (Trypanosoma brucei): inhibited parasite growth
